The results in this text go back to patent US12465618B2, “Compositions and methods for degenerative disc regeneration” (University Health Network, priority 2015, dated 2025).

Where two headings read alike, the source gives them in different places.

What all share (assay type): cell-based
The test system of assay [1] is human degenerative disc NP cells. The experiment in a line: Western blotting of human degenerative disc NP cells. Particulars: IL-1β and TNFα, Western blots, FIG. 2h. How it is done:
(§1) After euthanasia, healthy rat lumbar/caudal spine IVDs, injured tail discs and bovine caudal IVD NPs were removed aseptically and the nucleus pulposus (NP) was removed separately and enzymatically digested according to methods established by the present inventors^16. Similarly, human degenerative disc NPs were enzymatically digested using Pronase (0.4%, 1 hr at 37° C.) followed by Collagenase II treatment (0.015%, O/N, 37° C.). The following day, the cells were filtered with a 70p cell strainer and cultured within a hypoxic incubator (NuAire, MN, USA) in 3.5% O2, 5% CO2, in Advanced Dulbecco's modified Eagle's medium (ADMEM) supplemented with 8% fetal bovine serum (FBS) and penicillin and streptomycin (100 U/mL). For treatments, the cells were either cultured in serum free ADMEM (no treatment controls) or treated with interleukin-1β (IL-1β, 10 ng/mL), tumor necrosis factor-alpha (TNFα, 50 ng/mL), connective tissue growth factor (CTGF, 10-100 ng/mL), Wnt-inducible soluble protein 2 (WISP2, 10-100 ng/mL) or transforming growth factor beta 1 (TGFβ1, 5-20 ng/mL) for various time points under hypoxic conditions.
(§2) Equal amounts of whole cell or tissue lysates prepared using RIPA lysis buffer were subjected to Western blotting as described earlier^18,19. Total lysates (30 μg) were resolved on 10% sodium dodecyl sulphate-polyacrylamide gels (SDS-PAGE) under reducing conditions and then proteins were electro-transferred onto polyvinyledendifluoride (PVDF) membranes (BioRad, CA). After blocking with 5% non-fat powdered milk in Tris-buffered saline (TBS, 0.1 M, pH=7.4), blots were incubated with rabbit or goat polyclonal/mouse monoclonal primary antibodies at 4° C. overnight. […] Blots were washed three times with TTBS for 15 minutes and protein bands were detected by the enhanced chemiluminescence method (BioRad, CA) on Kodak Hyperfilm.

For assay [2], the system named is rat NP cells. Kind of assay: Western blotting of rat NP cells treated with IL-1β/TNFα with or without inhibitors or growth factors. As to the method: as §1, §2
Assay [3] relates to rat NP cells. Kind of assay: ECM and cell adhesion molecule gene array, real time quantitative PCR. Particulars: 24 hrs, vs no treatment control. How it is done: To determine the effect of IL-1β and TNFα on ECM turnover, rat NP cells were treated with IL-1β alone or in combination with TNFα for 24 hrs and real time quantitative PCR was performed using the ECM and cell adhesion molecule gene arrays (includes 84 genes).
as §1
Total RNA from healthy and treated (IL-1β alone or in combination with TNFα) rat NP cells, were isolated using RNAeasy extraction kit (Cat #74134, Qiagen) and quantified using a Nanodrop spectrophotometer. Total RNA (˜400 ng) was reverse-transcribed using RT^2 First Strand Kit (Cat #330401, Qiagen) following the manufacturer's instructions for preparing cDNA. To evaluate the effect of IL-1β alone or in combination with TNFα on extra-cellular matrix (ECM) genes in rat NP cells, the RT^2 Profiler™ PCR Array Rat Extracellular Matrix & Adhesion Molecules (PARN-013Z, Qiagen) was used and compared with no treatment controls (NTC) in 3 independent experiments using real time PCR performed on ABI 7900HT 384-well Fast block machine. Data analysis including calculation of ΔΔCt values, fold changes and p-values was carried out using software available online (https://www.qiagen.com/ca). Total RNA was isolated from human degenerative disc NP cells (H1/H2) treated with CTGF, TGFβ1, CTGF+TGFβ1 to evaluate their effect on collagen 2, HAPLN1, versican and thrombospondin 1 using gene specific primers. Similarly, RNA was isolated from human NP cells were treated with […] alone or in combination TNFα in presence of CTGF and TGFβ1 to determine their effect on Cox2 and MMP-13 expression using qRT-PCR.

Setting [4] is: rat NP cells treated with IL-1β and TNFα, Western blot, FIG. 2f-2g.

On to `Cc1ccc(S(=O)(=O)/C=C/C#N)cc1` [BAY-11-7082], for which the “cytokine induced Cox2 expression in presence of inhibitor” value in assay [1] was “decreased expression”. Further, the “IL-1β and TNFα induced MMP-3, MMP-13 and Cox2 expression in presence of inhibitor” value with rat NP cells [2] (setting [4]) is “Reduced expression”.
On to `C[S+]([O-])c1ccc(-c2nc(-c3ccncc3)c(-c3ccc(F)cc3)[nH]2)cc1` (stereo not shown) [SB203580], for which, in assay [1], the “cytokine induced Cox2 expression in presence of inhibitor” value is “decreased expression”. The “MMP-3, MMP-13 and Cox2 expression in presence of inhibitor” value in the assay with rat NP cells [2] (IL-1β treated rat NP cells, Western blot, FIG. 2f) is reported as “reduced expression”.
For `C[C@H](NC(=O)/C(C#N)=C/c1cccc(Br)n1)c1ccccc1` [STAT3 inhibitor], the “cytokine induced Cox2 expression in presence of inhibitor” value in assay [1] is given as “decreased expression”. Also, in the assay with rat NP cells [2] (setting [4]), the “IL-1β and TNFα induced MMP-3, MMP-13 and Cox2 expression in presence of inhibitor” value is listed as “Reduced expression”.
As for `N#CC(=C(/N)Sc1ccccc1N)/C(C#N)=C(\N)Sc1ccccc1N` [U0126], the “IL-1β and TNFα induced MMP-3, MMP-13 and Cox2 expression in presence of inhibitor” value in the assay with rat NP cells [2] is given as “failed to induce”.
With `COC[C@H]1OC(=O)c2coc3c2[C@@]1(C)C1=C(C3=O)[C@@H]2CCC(=O)[C@@]2(C)C[C@H]1OC(C)=O` [Wortamanin], the “IL-1β and TNFα induced MMP-3, MMP-13 and Cox2 expression in presence of inhibitor” value in the assay on rat NP cells [2] (setting [4]) was “reduced expression of MMP-3 and MMP-13 only”.
As for “IL1β: Human recombinant pro-inflammatory cytokine interleukin-1 beta, purchased from Peprotech, used at 10 ng/mL”, in the assay on rat NP cells [3], the “Fold regulation (IL1β vs NTC), gene Adamts8” value is recorded as 139.39; the “Fold regulation (IL1β vs NTC), gene Cd44” value is 23.57; the “Fold regulation (IL1β vs NTC), gene Cdh3” value is reported as −6.18; the “Fold regulation (IL1β vs NTC), gene Col3a1” value was −3.80. In addition, in the assay on rat NP cells [3], the “Fold regulation (IL1β vs NTC), gene Col4a1” value is 4.24; the “Fold regulation (IL1β vs NTC), gene Col4a2” value is reported as 3.20; the “Fold regulation (IL1β vs NTC), gene Ctgf” value is reported as −2.40; the “Fold regulation (IL1β vs NTC), gene Emilin1” value was found to be 4.42. Moreover, in the assay on rat NP cells [3], the “Fold regulation (IL1β vs NTC), gene Hapln1” value was −6.01; the “Fold regulation (IL1β vs NTC), gene Icam1” value was determined as 6.56; the “Fold regulation (IL1β vs NTC), gene Itga3” value came to 9.22; the “Fold regulation (IL1β vs NTC), gene Itga5” value is given as 6.23. In the assay on rat NP cells [3], the “Fold regulation (IL1β vs NTC), gene Itgav” value was found to be 2.14; the “Fold regulation (IL1β vs NTC), gene Lamc1” value came out at 4.24; the “Fold regulation (IL1β vs NTC), gene MMP3” value is listed as 68.04; the “Fold regulation (IL1β vs NTC), gene MMP9” value turned out to be 1252.77. In the assay on rat NP cells [3], the “Fold regulation (IL1β vs NTC), gene MMP13” value stood at 36.82; the “Fold regulation (IL1β vs NTC), gene Mmp11” value was −3.86; the “Fold regulation (IL1β vs NTC), gene Ncam1” value is −2.00; the “Fold regulation (IL1β vs NTC), gene Thbs1” value is given as −3.35. Further, in the assay with rat NP cells [3], the “Fold regulation (IL1β vs NTC), gene Thbs2” value is given as −4.14 and the “Fold regulation (IL1β vs NTC), gene Timp1” value is recorded as 5.04. Further, the “phosphorylation levels of c-Raf (S259), p42/44 (Thr202/Tyr204) and p38MAPK (Thr180/Tyr182)” value in the assay on rat NP cells [2] (rat NP cells, 5-60 minutes, no significant change in total protein) was “increased phosphorylation levels”.
